Data set [1] concerns DIO mice. In words: body weight reduction by multiple subcutaneous injections in DIO mice. It is filed as in vivo. Conditions: 30 nmol/kg subcutaneous twice a week for 5 weeks, mean of 6 mice. Here is the method:
7-week-old C57BL/6Nju mice were fed with a high-fat diet (of about 20% protein and about 60% fat) for 12 weeks for modeling. Feeding conditions: 12 hours of light and 12 hours of darkness cycle every day, ad libitum feeding, temperature 20-25° C., relative humidity 40-70%, ventilation frequency of 10-15 times/hour. According to body weight, water consumption, and food intake, the mice were randomly divided into groups the day before administration. […] Subcutaneous injection treatment was administered twice a week for 5 consecutive weeks, for a total of 10 administrations. After the administration, the body weight, OGTT, body fat ratio, blood lipids and liver function of the mice were measured. The data are shown as mean±standard deviation, and statistically analyzed by One-Way ANOVA.

For data set [2] the following is noted: cynomolgus macaques; cited from earlier work.

Numbering of substitutions follows the chain as printed. Names and notes keep the numbering of the source.

For the molecule Tirzepatide, in data set [1] (DIO mice), the ALT came to 19.000 U/L, the AST is listed as 54.683 U/L, the “Blood glucose (fasting)” value is listed as 7.2 mmol/L and the “LDL-C (plasma low-density lipoprotein cholesterol)” value is 0.423 mmol/L. Also, in data set [1] (DIO mice), the “TC (plasma total cholesterol)” value is on record as 3.923 mmol/L. Moreover, the “% Change in weight since inception” value in data set [1] (DIO obese mice) is given as −22.55%.

B1: natural FGF21: Fibroblast growth factor 21, wild type, SEQ ID NO 1 (protein)
chain: HPIPDSSPLLQFGGQVRQRYLYTDDAQQTEAHLEIREDGTVGGAADQSPESLLQLKALKPGVIQILGVKTSRFLCQRPDGALYGSLHFDPEACSFRELLLEDGYNVYQSEAHGLPLHLPGNKSPHRDPAPRGPARFLPLPGLPPALPEPPGILAPQPPDVGSSDPLSMVGPSQGRSPSYAS
modifications: Wild type FGF21
With B1, the half-life in vivo in data set [2] is 2 to 3 h.

B2: FGF21 L98R, P171G, A180E: FGF21 with the L98R, P171G, and A180E mutations, background literature variant (protein, UniProt Q9NSA1 29-209, looked up, variant L98R P171G A180E)
Fibroblast growth factor 21: B1 chain with L98R, P171G, A180E
For the molecule B2, the half-life in vivo result in data set [2] was “about 70 hours”.

The values are drawn from patent US12729231B2, “Fusion protein having triple activity and use thereof” (SHANGHAI MINWEI BIOTECHNOLOGY CO., LTD, priority 2023, dated 2026).
